Tests used:
Assay type in all cases: binding
KRAS G12D = target: T1, KRAS G12D (Homo sapiens, UniProt P01116, G12D); experiment: HTRF assay, interaction of KRAS G12D with SOS1; settings: Ras::SOS1 interaction, read-out: Inhibition of KRAS G12D (IC50)
T1 construct: made in house; host or cells: E. coli, e.g. BL21 (DE3)
From the text: (§1) This assay can be also used to assess a selective inhibition or reduction of signaling output of a mutant Ras protein relative to a wildtype, or relative to a different mutant Ras protein. For example, the equilibrium interaction of wildtype Kras or K-Ras mutant (e.g., wildtype or a mutant thereof) with SOS1 (e.g., hSOS1) can be assessed as a proxy or an indication for a subject compound's ability to bind and inhibit Ras protein. The HTRF assay detects from (i) a fluorescence resonance energy transfer (FRET) donor (e.g., antiGST-Europium) that is bound to GST-tagged K-Ras mutant to (ii) a FRET acceptor (e.g., anti-6His-XL665) bound to a His-tagged hSOS1.
(§2) The assay buffer can contain ˜5 mM HEPES pH 7.4, ˜150 mM NaCl, ˜ 1 mM DTT, 0.05% BSA and 0.0025% (v/v) Igepal. A Ras working solution is prepared in an assay buffer containing typically a suitable amount of the protein construct (e.g., GST-tagged K-Ras mutant) and the FRET donor (e.g., antiGST-Eu(K) from Cisbio, France). A SOS1 working solution is prepared in an assay buffer containing suitable amount of the protein construct (e.g., His-hSOS1) and the FRET acceptor (e.g., anti-6His-XL665 from Cisbio, France). A suitable amount of the protein construct will depend on the range of activity or range of IC50 values being detected or under investigation. For detecting an IC50 within a range of 500 nM, the protein constructs of the same range of molarity can be utilized.
(§3) A fixed volume of DMSO with or without test compound is transferred into a 384-well plate. Ras working solution is added to all wells of the test plate. SOS1 working solution is added to all wells except for those that are subsequently filled with inhibitor control solution. Upon incubation for about 10 minutes or longer, the fluorescence is measured with a M1000Pro plate reader (Tecan) using HTRF detection (excitation 337 nm, emission 1: 620 nm, emission 2: 665 nm). Compounds are tested in duplicate at different concentrations (for example, 10 μM, 2.5 μM, 0.63 μM, 0.16 μM, 0.04 μM, 0.01 μM test compound). The ratiometric data (i.e., emission 2 divided by emission 1) is used to calculate IC50 values against Ras using GraphPad Prism (GraphPad software). Signaling output measured in terms of IC50 values can be obtained and a ratio of IC50 against one mutant relative to another mutant can be calculated. For instance, a selective reduction of K-Ras G12D signaling output can be evidenced by a ratio greater than one. In particular, a selective reduction of K-Ras G12D signaling relative to K-Ras WT signaling is evidenced if the ratio of IC50 (against K-Ras WT) to IC50 (against K-Ras G12D) is greater than 1.

KRAS G12V = target: T2, KRAS G12V (Homo sapiens, UniProt P01116, G12V); experiment: HTRF assay, interaction of KRAS G12V with SOS1; settings: Ras::SOS1 interaction, read-out: Inhibition of KRAS G12V (IC50)
T2 construct: made in house; host or cells: E. coli, e.g. BL21 (DE3)
T2 sequence (P01116 1-188 isoform P01116-2 G12V): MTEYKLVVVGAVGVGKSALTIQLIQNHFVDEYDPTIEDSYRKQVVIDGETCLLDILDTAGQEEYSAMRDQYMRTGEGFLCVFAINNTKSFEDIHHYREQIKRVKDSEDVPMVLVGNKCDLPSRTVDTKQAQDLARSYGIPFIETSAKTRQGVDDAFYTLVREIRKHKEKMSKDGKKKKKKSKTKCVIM
From the text: as §1, §2, §3

wildtype KRAS = target: T3, wildtype KRAS (Homo sapiens, UniProt P01116); experiment: HTRF assay, interaction of wildtype KRAS with SOS1; settings: Ras::SOS1 interaction, read-out: Inhibition of KRAS WT (IC50)
T3 construct: made in house; host or cells: E. coli, e.g. BL21 (DE3)
T3 sequence (P01116 1-188 isoform P01116-2): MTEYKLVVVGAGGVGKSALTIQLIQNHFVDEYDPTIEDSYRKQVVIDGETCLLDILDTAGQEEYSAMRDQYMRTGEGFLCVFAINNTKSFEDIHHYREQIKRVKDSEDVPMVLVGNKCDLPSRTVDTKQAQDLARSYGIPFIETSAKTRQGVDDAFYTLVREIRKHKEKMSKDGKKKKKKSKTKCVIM
From the text: as §1, §2, §3

Measured: IC50

T1 sequence (P01116 1-188 isoform P01116-2 G12D): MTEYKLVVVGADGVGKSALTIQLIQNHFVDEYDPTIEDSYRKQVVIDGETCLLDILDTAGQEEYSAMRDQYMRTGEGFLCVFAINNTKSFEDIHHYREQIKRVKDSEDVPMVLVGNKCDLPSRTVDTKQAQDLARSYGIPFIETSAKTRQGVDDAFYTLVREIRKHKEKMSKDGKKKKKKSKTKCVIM

CN(C)CC1CNC(=O)CCN2CCOc3c(Cl)c(-c4ccc(F)c5sc(N)c(C#N)c45)c(F)c4nc(nc2c34)O1 (stereo not drawn) [Compound 128, 2-amino-4-(14-chloro-4-((dimethylamino)methyl)-16-fluoro-7-oxo-4,5,6,7,8,9,11,12-octahydro-2,17-(azeno)benzo[6,7][1,4]oxazepino[5,4-d][1]oxa[3,5,9]triazacycloundecin-15-yl)-7-fluorobenzo[b]thiophene-3-carbonitrile]
≤ 5 µM: all assays above

CNCCC1CC=CCCN2CCOc3c(Cl)c(-c4ccc(F)c5sc(N)c(C#N)c45)c(F)c4nc(nc2c34)O1 (stereo not drawn) [Compound 130, 2-amino-4-(14-chloro-16-fluoro-4-(2-(methylamino)ethyl)-4,5,8,9,11,12-hexahydro-2,17-(azeno)benzo[6,7][1,4]oxazepino[5,4-d][1]oxa[3,5]diazacycloundecin-15-yl)-7-fluorobenzo[b]thiophene-3-carbonitrile]
≤ 5 µM: all assays above

CNCC1CCCCCN2CCOc3c(Cl)c(-c4ccc(F)c5sc(N)c(C#N)c45)c(F)c4nc(nc2c34)O1 (stereo not drawn) [Compound 133, 2-amino-4-(14-chloro-16-fluoro-4-((methylamino)methyl)-4,5,6,7,8,9,11,12-octahydro-2,17-(azeno)benzo[6,7][1,4]oxazepino[5,4-d][1]oxa[3,5]diazacycloundecin-15-yl)-7-fluorobenzo[b]thiophene-3-carbonitrile]
≤ 5 µM: all assays above

CN1CCC[C@H]1C1CCCCCCN2CCOc3c(Cl)c(-c4ccc(F)c5sc(N)c(C#N)c45)c(F)c4nc(nc2c34)O1 (stereo partly drawn) [Compound 138, 2-amino-4-(15-chloro-17-fluoro-4-((S)-1-methylpyrrolidin-2-yl)-5,6,7,8,9,10,12,13-octahydro-4H-2,18-(azeno)benzo[6,7][1,4]oxazepino[5,4-d][1]oxa[3,5]diazacyclododecin-16-yl)-7-fluorobenzo[b]thiophene-3-carbonitrile]
≤ 5 µM: all assays above

CNCC1C/C=C\CCN2CCOc3c(Cl)c(-c4ccc(F)c5sc(N)c(C#N)c45)c(F)c4nc(nc2c34)O1 (stereo not drawn) [Compound 141, (Z)-2-amino-4-(14-chloro-16-fluoro-4-((methylamino)methyl)-4,5,8,9,11,12-hexahydro-2,17-(azeno)benzo[6,7][1,4]oxazepino[5,4-d][1]oxa[3,5]diazacycloundecin-15-yl)-7-fluorobenzo[b]thiophene-3-carbonitrile]
≤ 5 µM: all assays above

CN1CCCOc2nc3c4c(c(Cl)c(-c5ccc(F)c6sc(N)c(C#N)c56)c(F)c4n2)OCCN3CCC1 [Compound 143, 2-amino-4-(15-chloro-17-fluoro-7-methyl-5,6,7,8,9,10,12,13-octahydro-4H-2,18-(azeno)benzo[6,7][1,4]oxazepino[5,4-d][1]oxa[3,5,9]triazacyclododecin-16-yl)-7-fluorobenzo[b]thiophene-3-carbonitrile]
≤ 5 µM: all assays above

CN(C)CC1CNC(=O)CN2CCOc3c(Cl)c(-c4ccc(F)c5sc(N)c(C#N)c45)c(F)c4nc(nc2c34)OC1 (stereo not drawn) [Compound 145, 2-amino-4-(14-chloro-5-((dimethylamino)methyl)-16-fluoro-8-oxo-4,5,6,7,8,9,11,12-octahydro-2,17-(azeno)benzo[6,7][1,4]oxazepino[5,4-d][1]oxa[3,5,8]triazacycloundecin-15-yl)-7-fluorobenzo[b]thiophene-3-carbonitrile]
≤ 5 µM: all assays above

CN1CCCCCN2CCOc3c(Cl)c(-c4ccc(F)c5sc(N)c(C#N)c45)c(F)c4nc(nc2c34)OCC2(CC2)C1 [Compound 149, 2-amino-4-(17′-chloro-19′-fluoro-7′-methyl-7′,8′,9′,10′,11′,12′,14′,15′-octahydro-4′H,6′H-spiro[cyclopropane-1,5′-[2,20](azeno)benzo[6,7][1,4]oxazepino[5,4-d][1]oxa[3,5,11]triazacyclotetradecin]-18′-yl)-7-fluorobenzo[b]thiophene-3-carbonitrile]
≤ 5 µM: all assays above

CN1CCCCCCN2CCOc3c(Cl)c(-c4ccc(F)c5sc(N)c(C#N)c45)c(F)c4nc(nc2c34)OCCC1 [Compound 153, 2-amino-4-(18-chloro-20-fluoro-7-methyl-4,5,6,7,8,9,10,11,12,13,15,16-dodecahydro-2,21-(azeno)benzo[6,7][1,4]oxazepino[5,4-d][1]oxa[3,5,12]triazacyclopentadecin-19-yl)-7-fluorobenzo[b]thiophene-3-carbonitrile]
≤ 5 µM: all assays above

CN(C)CC1CCCCCN2c3nc(nc4c(F)c(-c5ccc(F)c6sc(N)c(C#N)c56)c(Cl)c(c34)OC[C@@H]2C(F)F)O1 (stereo partly drawn) [Compound 156, 2-amino-4-((11R)-14-chloro-11-(difluoromethyl)-4-((dimethylamino)methyl)-16-fluoro-4,5,6,7,8,9,11,12-octahydro-2,17-(azeno)benzo[6,7][1,4]oxazepino[5,4-d][1]oxa[3,5]diazacycloundecin-15-yl)-7-fluorobenzo[b]thiophene-3-carbonitrile]
≤ 5 µM: all assays above

CNCC1CCCCCCN2CCOc3c(Cl)c(-c4ccc(F)c5sc(N)c(C#N)c45)c(F)c4nc(nc2c34)O1 (stereo not drawn) [Compound 157, 2-amino-4-(15-chloro-17-fluoro-4-((methylamino)methyl)-5,6,7,8,9,10,12,13-octahydro-4H-2,18-(azeno)benzo[6,7][1,4]oxazepino[5,4-d][1]oxa[3,5]diazacyclododecin-16-yl)-7-fluorobenzo[b]thiophene-3-carbonitrile]
≤ 5 µM: all assays above

CN(C)CC1CCNC(=O)CN2CCOc3c(Cl)c(-c4ccc(F)c5sc(N)c(C#N)c45)c(F)c4nc(nc2c34)O1 (stereo not drawn) [Compound 158, 2-amino-4-(14-chloro-4-((dimethylamino)methyl)-16-fluoro-8-oxo-4,5,6,7,8,9,11,12-octahydro-2,17-(azeno)benzo[6,7][1,4]oxazepino[5,4-d][1]oxa[3,5,8]triazacycloundecin-15-yl)-7-fluorobenzo[b]thiophene-3-carbonitrile]
≤ 5 µM: all assays above

CN1CCC[C@H]1[C@@H]1CC/C=C\CCN2CCOc3c(Cl)c(-c4ccc(F)c5sc(N)c(C#N)c45)c(F)c4nc(nc2c34)O1 [Compound 159, 2-amino-4-((4S,Z)-15-chloro-17-fluoro-4-((S)-1-methylpyrrolidin-2-yl)-5,6,9,10,12,13-hexahydro-4H-2,18-(azeno)benzo[6,7][1,4]oxazepino[5,4-d][1]oxa[3,5]diazacyclododecin-16-yl)-7-fluorobenzo[b]thiophene-3-carbonitrile]
≤ 5 µM: all assays above

Source: patent US20240270736A1, “MACROCYCLIC HETEROCYCLES AND USES THEREOF” (Kumquat Biosciences Inc., priority 2022, published 2024)
